Paper PMC9204419, “A Toolbox for the Generation of Chemical Probes for Baculovirus IAP Repeat Containing Proteins” (Frontiers in Cell and Developmental Biology, 2022)
Read-outs that look alike come from different tables or passages of the source.

What was measured:
BIRC2-BIR3 domain [1] = target: T1, BIRC2-BIR3 domain (Homo sapiens, UniProt Q13490); experiment: Differential scanning fluorimetry (DSF); details: for ΔTm [°C] (Supplementary Table S1): technical replicate
Method: Purified proteins were buffered in DSF buffer (25 mM HEPES pH 7.5, 500 mM NaCl) and were assayed in a 384-well plate (Thermo, #BC3384) with a final protein concentration of 20 μM in 10 μL final assay volume. Inhibitors were added in excess to a final concentration of 40 μM, using an ECHO 550 acoustic dispenser (Labcyte). As a fluorescent probe, SYPRO-Orange (Molecular Probes) was used at 5x final concentration. […] Data was analyzed using Boltzmann-equation in the Protein Thermal Shift software (Applied Biosystems). Samples were measured in technical triplicates.
The assay was run in the presence of DMSO to exclude DMSO influences towards melting temperature differences when testing small molecules (Figures 2C,D).

BIRC2 = BIRC2 (Homo sapiens, UniProt Q13490); experiment: NanoBRET cellular target engagement, full-length BIRC2
Chain of BIRC2 (Q13490 whole entry): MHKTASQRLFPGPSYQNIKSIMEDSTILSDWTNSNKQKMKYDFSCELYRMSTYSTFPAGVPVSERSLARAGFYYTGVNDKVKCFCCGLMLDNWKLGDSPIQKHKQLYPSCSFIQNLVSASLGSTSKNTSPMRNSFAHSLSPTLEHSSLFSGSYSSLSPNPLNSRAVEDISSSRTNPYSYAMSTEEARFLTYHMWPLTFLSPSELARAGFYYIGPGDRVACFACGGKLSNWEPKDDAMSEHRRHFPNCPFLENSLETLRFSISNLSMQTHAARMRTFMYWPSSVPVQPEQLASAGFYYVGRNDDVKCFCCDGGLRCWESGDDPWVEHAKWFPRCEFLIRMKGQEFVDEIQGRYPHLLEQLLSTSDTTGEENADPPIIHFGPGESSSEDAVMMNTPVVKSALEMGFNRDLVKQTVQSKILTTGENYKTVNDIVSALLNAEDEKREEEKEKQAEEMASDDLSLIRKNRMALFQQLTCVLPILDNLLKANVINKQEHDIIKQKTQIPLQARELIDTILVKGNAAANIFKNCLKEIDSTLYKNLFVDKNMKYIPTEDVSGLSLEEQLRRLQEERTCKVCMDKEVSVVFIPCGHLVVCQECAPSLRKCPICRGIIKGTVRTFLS
Method: (§1) In brief: Constructs contained the cDNA of full-length or single domains cloned in frame with an N-terminal NanoLuc-fusion as specified in Supplementary Table S2. Plasmids were transfected into HEK293T cells using FuGENE HD (Promega, E2312) and proteins were allowed to express for 20 h. […] The corresponding transfected cells were added and reseeded at a density of 2.5^5 cells/mL after trypsinization and resuspending in Opti-MEM without phenol red (Life Technologies). […] Competitive displacement data were then graphed using GraphPad Prism 9.3 software using a normalized 3-parameter curve fit with the following equation: Y = 100/(1 + 10^(X-LogIC50)).

BIRC7 = target: T2, BIRC7 (Homo sapiens, UniProt Q96CA5); experiment: NanoBRET cellular target engagement, full-length BIRC7
T2 sequence (Q96CA5 1-298): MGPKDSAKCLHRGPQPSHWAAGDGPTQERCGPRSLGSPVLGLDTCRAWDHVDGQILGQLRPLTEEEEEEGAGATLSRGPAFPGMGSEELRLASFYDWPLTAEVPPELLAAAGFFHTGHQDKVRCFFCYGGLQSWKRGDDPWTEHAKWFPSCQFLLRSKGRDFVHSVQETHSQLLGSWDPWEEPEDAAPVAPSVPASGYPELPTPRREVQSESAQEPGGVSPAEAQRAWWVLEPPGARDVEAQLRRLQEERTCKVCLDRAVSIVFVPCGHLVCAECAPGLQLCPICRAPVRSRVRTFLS
Method: as §1

BIRC8 = target: T3, BIRC8 (Homo sapiens, UniProt Q96P09); experiment: NanoBRET cellular target engagement, full-length BIRC8
T3 sequence (Q96P09 1-236): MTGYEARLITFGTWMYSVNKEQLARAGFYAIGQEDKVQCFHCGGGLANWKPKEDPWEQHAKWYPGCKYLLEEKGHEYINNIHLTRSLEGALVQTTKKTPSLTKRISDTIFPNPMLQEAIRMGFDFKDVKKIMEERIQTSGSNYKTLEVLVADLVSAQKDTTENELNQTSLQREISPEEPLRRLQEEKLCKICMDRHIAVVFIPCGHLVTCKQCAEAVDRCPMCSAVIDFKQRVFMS
Method: as §1

BIRC7 BIR = target: T4, BIRC7 BIR (Homo sapiens, UniProt Q96CA5); experiment: NanoBRET cellular target engagement, single domain BIRC7 BIR
T4 sequence (Q96CA5 70-176): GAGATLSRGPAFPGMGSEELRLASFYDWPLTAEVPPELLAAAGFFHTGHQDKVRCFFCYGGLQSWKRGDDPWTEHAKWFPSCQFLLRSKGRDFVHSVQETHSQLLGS
Method: as §1

BIRC8 BIR = target: T5, BIRC8 BIR (Homo sapiens, UniProt Q96P09); experiment: NanoBRET cellular target engagement, single domain BIRC8 BIR
T5 sequence (Q96P09 1-90): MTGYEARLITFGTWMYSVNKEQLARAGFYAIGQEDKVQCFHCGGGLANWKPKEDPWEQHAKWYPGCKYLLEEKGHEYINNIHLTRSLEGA

BIRC2 BIR2 = BIRC2 BIR2 (Homo sapiens, UniProt Q13490); experiment: NanoBRET cellular target engagement, single domain BIRC2 BIR2
Chain of BIRC2 BIR2 (Q13490 165-267): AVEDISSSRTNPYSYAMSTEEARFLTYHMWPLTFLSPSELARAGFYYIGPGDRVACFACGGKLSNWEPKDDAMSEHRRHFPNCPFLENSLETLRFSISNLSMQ

BIRC2 BIR3 = BIRC2 BIR3 (Homo sapiens, UniProt Q13490); experiment: NanoBRET cellular target engagement, single domain BIRC2 BIR3
Chain of BIRC2 BIR3 (Q13490 251-372): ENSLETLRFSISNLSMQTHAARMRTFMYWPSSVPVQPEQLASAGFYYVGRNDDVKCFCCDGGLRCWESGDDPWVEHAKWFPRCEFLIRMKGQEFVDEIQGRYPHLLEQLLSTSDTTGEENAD
Method: as §1

BIRC1 BIR[2] = target: T6, BIRC1 BIR[2] (Homo sapiens, UniProt Q13075); experiment: NanoBRET cellular target engagement, single domain BIRC1 BIR[2]
T6 sequence (Q13075 139-251): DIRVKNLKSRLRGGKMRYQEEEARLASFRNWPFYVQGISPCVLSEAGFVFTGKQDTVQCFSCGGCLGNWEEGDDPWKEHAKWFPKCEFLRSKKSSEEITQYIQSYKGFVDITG
Method: as §1

BIRC2-BIR3 domain [3] = target: T1, BIRC2-BIR3 domain; experiment: Fluorescence polarization (FP) competition assay with fluorescent SMAC probe; type: binding; parameters: BIRC2-BIR3 domain (260–352) was expressed; His6 (N, cleaved yes); GST (N, cleaved yes); made in house; host or cells: E. coli; details: for Ki: read-out: FP Assay K I Values
Method: Resulting data was plotted using GraphPad Prism 9.3 software and analyzed using a nonlinear fit to calculate the probe IC50. […] Compounds were titrated from 20 μM to 20 nM using an ECHO 550 acoustic dispenser (Labcyte) incubated for 1 h at room temperature and subsequent read out.
The assay is based on the displacement of a fluorescent SMAC mimetic from the binding site.

BIRC2-BIR3 domain [4] = target: T1, BIRC2-BIR3 domain; experiment: Isothermal titration calorimetry (ITC); type: binding; parameters: BIRC2-BIR3 domain (260–352) was expressed; His6 (N, cleaved yes); GST (N, cleaved yes); made in house; host or cells: E. coli
Method: For this protocol, the chamber was pre-equilibrated with the test compound, and the BIRC2-BIR3 domain was titrated in while continuously measuring the rate of exothermic heat evolution. The heat of binding was integrated, corrected, and fitted to an independent single-binding site model based on the manufacturer’s instructions, from which thermodynamic parameters (ΔH and TΔS), equilibrium association and dissociation constants (K A and K D, respectively), and stoichiometry (n) were calculated.

BIRC2-BIR3 domain [5] = target: T1, BIRC2-BIR3 domain; parameters: BIRC2-BIR3 domain (260–352) was expressed; His6 (N, cleaved yes); GST (N, cleaved yes); made in house; host or cells: E. coli; details: ref Lu et al. (2008); read-out: Literature FP Assay K I Values; cited from earlier work
BIRC3 = BIRC3 (Homo sapiens, UniProt Q13489); experiment: NanoBRET cellular target engagement, full-length BIRC3
Chain of BIRC3 (Q13489 whole entry): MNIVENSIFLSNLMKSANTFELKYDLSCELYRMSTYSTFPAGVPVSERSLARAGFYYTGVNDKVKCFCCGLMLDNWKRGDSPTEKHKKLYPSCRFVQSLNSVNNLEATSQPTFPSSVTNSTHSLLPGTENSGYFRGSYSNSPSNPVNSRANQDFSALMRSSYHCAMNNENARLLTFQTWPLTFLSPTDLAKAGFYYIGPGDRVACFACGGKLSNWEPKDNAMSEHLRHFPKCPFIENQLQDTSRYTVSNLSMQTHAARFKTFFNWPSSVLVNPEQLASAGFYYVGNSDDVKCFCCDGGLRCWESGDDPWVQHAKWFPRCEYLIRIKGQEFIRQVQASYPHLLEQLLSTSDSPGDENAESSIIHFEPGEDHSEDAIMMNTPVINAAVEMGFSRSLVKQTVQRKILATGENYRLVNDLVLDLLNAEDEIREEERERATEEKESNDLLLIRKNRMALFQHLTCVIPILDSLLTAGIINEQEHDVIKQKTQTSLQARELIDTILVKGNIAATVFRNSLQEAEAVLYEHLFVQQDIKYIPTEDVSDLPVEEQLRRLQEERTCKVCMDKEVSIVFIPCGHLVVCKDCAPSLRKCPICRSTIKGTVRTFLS

BIRC4 = BIRC4 (Homo sapiens, UniProt P98170); experiment: NanoBRET cellular target engagement, full-length BIRC4
Chain of BIRC4 (P98170 whole entry, the tested form may be a part): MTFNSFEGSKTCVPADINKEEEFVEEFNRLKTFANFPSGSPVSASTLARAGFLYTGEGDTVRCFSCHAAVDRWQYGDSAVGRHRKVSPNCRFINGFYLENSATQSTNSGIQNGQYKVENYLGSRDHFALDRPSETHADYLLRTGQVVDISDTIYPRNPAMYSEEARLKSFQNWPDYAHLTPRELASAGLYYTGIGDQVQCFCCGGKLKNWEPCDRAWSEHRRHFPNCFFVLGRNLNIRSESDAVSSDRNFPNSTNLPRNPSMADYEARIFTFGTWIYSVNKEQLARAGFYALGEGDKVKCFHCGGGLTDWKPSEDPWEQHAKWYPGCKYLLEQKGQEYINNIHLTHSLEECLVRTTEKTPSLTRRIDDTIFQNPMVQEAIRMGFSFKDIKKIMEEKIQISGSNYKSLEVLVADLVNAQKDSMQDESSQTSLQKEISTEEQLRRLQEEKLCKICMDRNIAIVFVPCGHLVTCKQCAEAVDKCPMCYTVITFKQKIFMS
Method: as §1

BIRC3 BIR2 = BIRC3 BIR2 (Homo sapiens, UniProt Q13489); experiment: NanoBRET cellular target engagement, single domain BIRC3 BIR2
Chain of BIRC3 BIR2 (Q13489 147-253): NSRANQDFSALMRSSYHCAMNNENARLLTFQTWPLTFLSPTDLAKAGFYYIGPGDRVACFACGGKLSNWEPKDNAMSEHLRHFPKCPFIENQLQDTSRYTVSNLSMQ
Method: as §1

BIRC3 BIR3 = BIRC3 BIR3 (Homo sapiens, UniProt Q13489); experiment: NanoBRET cellular target engagement, single domain BIRC3 BIR3
Chain of BIRC3 BIR3 (Q13489 236-360): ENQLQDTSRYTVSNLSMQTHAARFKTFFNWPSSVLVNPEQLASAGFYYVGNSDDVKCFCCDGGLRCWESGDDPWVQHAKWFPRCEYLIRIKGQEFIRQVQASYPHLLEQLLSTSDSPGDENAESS

[6] = 25°C, duplicates, mean ± SD, read-out: K D Measured in ITC

T1 sequence (Q13490 260-352): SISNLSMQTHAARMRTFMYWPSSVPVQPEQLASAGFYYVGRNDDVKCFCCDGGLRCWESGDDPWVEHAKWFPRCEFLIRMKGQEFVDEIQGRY

Row | ΔTm [°C] (Supplementary Table S1) (BIRC2-BIR3 domain [1]; first column) | ΔTm [°C] (Supplementary Table S1) (BIRC2-BIR3 domain [1]; second column) | ΔTm [°C] (Supplementary Table S1) (BIRC2-BIR3 domain [1]; third column) | Kd (BIRC2-BIR3 domain [4]; [6]) | EC50 (BIRC3) | EC50 (BIRC4) | EC50 (BIRC7) | EC50 (BIRC8) | EC50 (BIRC7 BIR) | EC50 (BIRC8 BIR) | EC50 (BIRC3 BIR2) | EC50 (BIRC3 BIR3) | EC50 (BIRC1 BIR[2]) | Compound | further results
1 | 13.6 °C | 13.4 °C | 13.1 °C | 41.6 ± 3.4 nM | – | – | – | – | – | – | – | – | – | CN[C@@H](C)C(=O)N[C@H]1CCCC[C@H]2CC[C@@H](C(=O)N[C@@H](c3ccccc3)c3cn(CCCCc4ccc(CCCCn5cc([C@@H](NC(=O)[C@@H]6CC[C@@H]7CCCC[C@H](NC(=O)[C@H](C)NC)C(=O)N76)c6ccccc6)nn5)cc4)nn3)N2C1=O [SM-164] | DSF Assay ΔTm (BIRC2-BIR3 domain [1]; difference in melting temperature to DMSO control, 20 μM protein, 40 μM inhibitor, mean ± SD, n = 3): 13.4 ± 0.2 °C; Mean, ΔTm [°C] (Supplementary Table S1) (BIRC2-BIR3 domain [1]; mean of n=3, difference to DMSO control): 13.4 °C; EC50 (BIRC2; read-out: EC50 ± SEM NanoBRET BIRC2, full-length, HEK293T, n = 4): 5.8 ± 0.6 nM; EC50 (BIRC7; read-out: EC50 ± SEM NanoBRET BIRC7, full-length, HEK293T, n = 4): 16.5 ± 6 nM; EC50 (BIRC8; read-out: EC50 ± SEM NanoBRET BIRC8, full-length, HEK293T, n = 4): 85.7 ± 4.7 nM; EC50 (BIRC7 BIR; read-out: EC50 ± SEM NanoBRET BIRC7 BIR, single domain, HEK293T, n = 4): 50.9 ± 44.4 nM; EC50 (BIRC8 BIR; read-out: EC50 ± SEM NanoBRET BIRC8 BIR, single domain, HEK293T, n = 4): 87.3 ± 9.4 nM; EC50 (BIRC2 BIR2; read-out: EC50 ± SEM NanoBRET BIRC2 BIR2, single domain, HEK293T, n = 4): 6610 ± 5280 nM; EC50 (BIRC2 BIR3; read-out: EC50 ± SEM NanoBRET BIRC2 BIR3, single domain, HEK293T, n = 4): 0.8 ± 0.1 nM; EC50 (BIRC1 BIR[2]; read-out: EC50 ± SEM NanoBRET BIRC1 BIR[2], single domain, HEK293T, n = 4): 941 ± 258 nM; Ki (BIRC2-BIR3 domain [3]; BIRC2 BIR3 domain, Cheng-Prusoff from IC50, mean ± SD, n = 3): 1.8 ± 0.7 nM; Ki (BIRC2-BIR3 domain [5]): 0.3 ± 0.1 nM
2 | 11.8 °C | 11.8 °C | 11.4 °C | – | 62 ± 8.5 nM | 28.5 ± 5.2 nM | 25.1 ± 5.2 nM | 69.3 ± 21.1 nM | 18 ± 4.5 nM | 69.6 ± 0.3 nM | 8135 ± 52.3 nM | 5.2 ± 1.2 nM | 467 ± 21 nM | CN[C@@H](C)C(=O)N[C@H]1CN(C(=O)CC(C)C)CC[C@H]2CC[C@@H](C(=O)NC(c3ccccc3)c3ccccc3)N2C1=O [AT406] | ΔTm at 40 µM (BIRC2-BIR3 domain [1]; read-out: DSF Assay ΔTm): 11.6 ± 0.2 °C
3 | – | – | – | – | – | 15.3 ± 5 nM | 35.5 ± 9.4 nM | 134 ± 8.4 nM | 28.4 ± 2.7 nM | 146 ± 3.8 nM | – | – | 15200 ± 1230 nM | CN[C@@H](C)C(=O)N[C@H](C(=O)N1CCC[C@H]1C(=O)Nc1snnc1-c1ccccc1)C1CCCCC1 [GDC-0152] | –
4 | – | – | – | 37.5 ± 6.1 nM | 9.2 ± 1 nM | – | 19.9 ± 2.6 nM | 93.9 ± 9.3 nM | 17 ± 2.4 nM | 108 ± 7.5 nM | 681 ± 68 nM | 1.5 ± 0.2 nM | 1230 ± 325 nM | CN[C@@H](C)C(=O)N[C@H](C(=O)N1CCC[C@H]1C(=O)N[C@@H]1CCCc2ccccc21)C1CCCCC1 [A 410099.1] | EC50 (BIRC2): 4.6 ± 0.2 nM; EC50 (BIRC2 BIR2): 333 ± 35.4 nM; EC50 (BIRC2 BIR3): 0.4 ± 0.2 nM; gain in potency on single BIR3 domain compared to full-length protein (BIRC2 BIR3; NanoBRET, single BIR3 domain vs full-length): about 10 fold; IC50 (BIRC2-BIR3 domain [3]; BIRC2 BIR3 domain, 5 nM probe, 30 nM protein, approximations, read-out: FP assay IC50 (estimated)): 5.4 nM; Ki (BIRC2-BIR3 domain [3]): 2 ± 1.1 nM; ITC ΔG (BIRC2-BIR3 domain [4]; 25°C): -10.04 kcal/mol; ITC ΔH (BIRC2-BIR3 domain [4]; 25°C): -8.23 kcal/mol; Kd (BIRC2-BIR3 domain [4]; 25°C, exemplary titration, read-out: ITC KD (Figure 2E,F)): 43.6 nM; ITC stoichiometry n (BIRC2-BIR3 domain [4]; exemplary titration, Figure 2E,F): 1.074
